# Values of other authors in patent US5006550A, “Chroman esters of phenols and benzoic acids having retinoid-like activity” (Allergan, Inc., priority 1989, dated 1991).
# System: ornithine decarboxylase (ODC)
# Settings: background statement on retinoic acid
smiles,measurement,value
CC1=C(/C=C/C(C)=C/C=C/C(C)=C/C(=O)O)C(C)(C)CCC1 [Retinoic acid],inhibition of induction of ODC activity by TPA (in words),inhibits this induction of ODC activity by TPA
